How the values were obtained:
Type in all cases: functional
OVCAR-5 = test: Growth inhibition of human OVCAR5 cells after 48 hrs by sulforhodamine B assay; conditions: OVCAR-5, 48 h
NCI-H522 = test: Growth inhibition of human NCI-H522 cells after 48 hrs by sulforhodamine B assay; conditions: NCI-H522, 48 h
HCT-15 = test: Growth inhibition of human HCT15 cells after 48 hrs by sulforhodamine B assay; conditions: HCT-15, 48 h
[1] = Growth inhibition of human HCC2998 cells after 48 hrs by sulforhodamine B assay; conditions: HCC 2998, 48 h
[2] = Growth inhibition of human RXF631L cells after 48 hrs by sulforhodamine B assay; conditions: RXF 631, 48 h
NCI-H23 = test: Growth inhibition of human NCI-H23 cells after 48 hrs by sulforhodamine B assay; conditions: NCI-H23, 48 h
[3] = Growth inhibition of human HBC4 cells after 48 hrs by sulforhodamine B assay; conditions: HBC4, 48 h
MCF7 = test: Growth inhibition of human MCF7 cells after 48 hrs by sulforhodamine B assay; conditions: MCF7, 48 h
SNB-75 = test: Growth inhibition of human SNB75 cells after 48 hrs by sulforhodamine B assay; conditions: SNB-75, 48 h
OVCAR-4 = test: Growth inhibition of human OVCAR4 cells after 48 hrs by sulforhodamine B assay; conditions: OVCAR-4, 48 h
MKN-74 = test: Growth inhibition of human MKN74 cells after 48 hrs by sulforhodamine B assay; conditions: MKN-74, 48 h
HT-29 = test: Growth inhibition of human HT-29 cells after 48 hrs by sulforhodamine B assay; conditions: HT-29, 48 h
MDA-MB-231 = test: Growth inhibition of human MDA-MB-231 cells after 48 hrs by sulforhodamine B assay; conditions: MDA-MB-231, 48 h
MKN-45 = test: Growth inhibition of human MKN45 cells after 48 hrs by sulforhodamine B assay; conditions: MKN-45, 48 h
PC-3 = test: Growth inhibition of human PC3 cells after 48 hrs by sulforhodamine B assay; conditions: PC-3, 48 h
[4] = Growth inhibition of human MKN1 cells after 48 hrs by sulforhodamine B assay; conditions: MKN-1, 48 h
SF-268 = test: Growth inhibition of human SF268 cells after 48 hrs by sulforhodamine B assay; conditions: SF-268, 48 h
OVCAR-8 = test: Growth inhibition of human OVCAR8 cells after 48 hrs by sulforhodamine B assay; conditions: OVCAR-8, 48 h
U-251 = test: Growth inhibition of human U251 cells after 48 hrs by sulforhodamine B assay; conditions: U-251, 48 h
ACHN = test: Growth inhibition of human ACHN cells after 48 hrs by sulforhodamine B assay
OVCAR-3 = test: Growth inhibition of human OVCAR3 cells after 48 hrs by sulforhodamine B assay; conditions: OVCAR-3, 48 h
KM12 = test: Growth inhibition of human KM12 cells after 48 hrs by sulforhodamine B assay; conditions: KM12, 48 h
SF-539 = test: Growth inhibition of human SF539 cells after 48 hrs by sulforhodamine B assay; conditions: SF-539, 48 h
SNB-78 = test: Growth inhibition of human SNB78 cells after 48 hrs by sulforhodamine B assay; conditions: SNB-78, 48 h
NCI-H226 = test: Growth inhibition of human NCI-H226 cells after 48 hrs by sulforhodamine B assay; conditions: NCI-H226, 48 h
DU-145 = test: Growth inhibition of human DU145 cells after 48 hrs by sulforhodamine B assay; conditions: DU-145, 48 h
SK-OV-3 = test: Growth inhibition of human SKOV3 cells after 48 hrs by sulforhodamine B assay; conditions: SK-OV-3, 48 h
DMS-273 = test: Growth inhibition of human DMS273 cells after 48 hrs by sulforhodamine B assay; conditions: DMS-273, 48 h
NCI-H460 = test: Growth inhibition of human NCI-H460 cells after 48 hrs by sulforhodamine B assay; conditions: NCI-H460, 48 h
SF-295 = test: Growth inhibition of human SF295 cells after 48 hrs by sulforhodamine B assay; conditions: SF-295, 48 h
A549 = test: Growth inhibition of human A549 cells after 48 hrs by sulforhodamine B assay; conditions: A549, 48 h
St-4 = test: Growth inhibition of human St-4 cells after 48 hrs by sulforhodamine B assay; conditions: St-4, 48 h
[5] = Growth inhibition of human HBC5 cells after 48 hrs by sulforhodamine B assay; conditions: HBC5, 48 h
HCT-116 = test: Growth inhibition of human HCT116 cells after 48 hrs by sulforhodamine B assay; conditions: HCT-116, 48 h
LOX IMVI = test: Growth inhibition of human LOXIMVI cells after 48 hrs by sulforhodamine B assay
[6] = Growth inhibition of human BSY1 cells after 48 hrs by sulforhodamine B assay; conditions: BSY-1, 48 h
MKN-7 = test: Growth inhibition of human MKN7 cells after 48 hrs by sulforhodamine B assay; conditions: MKN-7, 48 h
DMS-114 = test: Growth inhibition of human DMS114 cells after 48 hrs by sulforhodamine B assay; conditions: DMS-114, 48 h
MKN-28 = test: Growth inhibition of human MKN28 cells after 48 hrs by sulforhodamine B assay; conditions: MKN-28, 48 h

| Structure (SMILES) | GI50 (OVCAR-5) [µM] | GI50 (NCI-H522) [µM] | GI50 (HCT-15) [µM] | GI50 [1] [µM] | GI50 [2] [µM] | GI50 (NCI-H23) [µM] | GI50 [3] [µM] | GI50 (MCF7) [µM] | GI50 (SNB-75) [µM] | GI50 (OVCAR-4) [µM] | GI50 (MKN-74) [µM] | GI50 (HT-29) [µM] | GI50 (MDA-MB-231) [µM] | GI50 (MKN-45) [µM] | GI50 (PC-3) [µM] | GI50 [4] [µM] | GI50 (SF-268) [µM] | GI50 (OVCAR-8) [µM] | GI50 (U-251) [µM] | GI50 (ACHN) [µM] | also measured |
| --- | --- | --- | --- | --- | --- | --- | --- | --- | --- | --- | --- | --- | --- | --- | --- | --- | --- | --- | --- | --- | --- |
| CCCCCCCCCCCC[C@@H](O)[C@H]1CC[C@H]([C@H](O)CCCCCCCCCCNC(=O)c2ccnn2C)O1 | > 100 | 1.41 | > 100 | > 100 | > 100 | 0.0525 | > 100 | 3.24 | 50.1 | 22.9 | 3.89 | > 100 | 8.51 | 7.41 | 18.2 | 43.7 | > 100 | 30.9 | > 100 | 24 | GI50 (OVCAR-3): 77.6 µM; GI50 (KM12): > 100 µM; GI50 (SF-539): 3.72 µM; GI50 (SNB-78): > 100 µM; GI50 (NCI-H226): 40.7 µM; GI50 (DU-145): > 100 µM; GI50 (SK-OV-3): > 100 µM; GI50 (DMS-273): 5.75 µM; GI50 (NCI-H460): 8.13 µM; GI50 (SF-295): 10 µM; GI50 (A549): 12.9 µM; GI50 (St-4): 18.2 µM; GI50 [5]: 17 µM |
| CCCCCCCCCCCC[C@@H](O)[C@H]1CC[C@H]([C@H](O)CCCCCCCCCCN(C)C(=O)c2ccnn2C)O1 | 14.1 | 2.29 | 10 | 12 | 11 | 0.24 | 10 | 5.01 | 15.8 | 10 | 1.7 | 8.13 | 8.91 | 11 | 2.19 | 5.5 | 15.1 | 6.03 | 10 | 11 | GI50 (HCT-116): 0.794 µM; GI50 (LOX IMVI): 1.41 µM; GI50 [6]: 0.501 µM; GI50 (MKN-7): 0.0513 µM; GI50 (DMS-114): 0.0347 µM; GI50 (OVCAR-3): 10 µM; GI50 (KM12): 4.17 µM; GI50 (SF-539): 12 µM; GI50 (SNB-78): 12 µM; GI50 (NCI-H226): 9.77 µM; GI50 (DU-145): 12.9 µM; GI50 (SK-OV-3): 15.8 µM; GI50 (DMS-273): 3.31 µM; GI50 (NCI-H460): 5.5 µM; GI50 (SF-295): 2 µM; GI50 (A549): 8.51 µM; GI50 (St-4): 6.76 µM; GI50 (MKN-28): 0.302 µM; GI50 [5]: 3.09 µM |
| CCCCCCCCCCCC[C@@H](O)[C@H]1CC[C@H]([C@H](O)CCCCCCCCCCNCc2ccnn2C)O1 | 3.09 | 1.29 | 2 | 1.82 | 2.4 | 0.646 | 1.82 | 1.7 | 2 | 1.58 | 1.29 | 3.02 | 2.19 | 1.82 | 2.29 | 1.41 | 3.63 | 1.58 | 1.51 | 3.09 | GI50 (HCT-116): 1.1 µM; GI50 (LOX IMVI): 1.2 µM; GI50 [6]: 0.339 µM; GI50 (MKN-7): 0.309 µM; GI50 (DMS-114): 0.129 µM; GI50 (OVCAR-3): 1.51 µM; GI50 (KM12): 1.41 µM; GI50 (SF-539): 1.58 µM; GI50 (SNB-78): 2.09 µM; GI50 (NCI-H226): 3.31 µM; GI50 (DU-145): 4.37 µM; GI50 (SK-OV-3): 2.09 µM; GI50 (DMS-273): 1.58 µM; GI50 (NCI-H460): 1.7 µM; GI50 (SF-295): 1.2 µM; GI50 (A549): 8.71 µM; GI50 (St-4): 1.82 µM; GI50 (MKN-28): 0.501 µM; GI50 [5]: 2.09 µM |
